Source: publication PMC5619819, “A highly-sensitive high throughput assay for dynamin's basal GTPase activity” (PLoS ONE, 2017)
Several values for one entry are separate records, joined by “and”; a condition that tells them apart may be missing. Equal entries are not always repeated. Entries after “also recorded” stand apart in the source; their conditions may differ.

How the values were obtained:
Dynamin-1 (Dyn1) [1] = biological target: T1, Dynamin-1 (Dyn1) (Homo sapiens, UniProt Q05193); assay: Transcreener GDP fluorescence polarization assay, basal GTPase activity; format: biochemical; details: for inhibition of basal GTPase activity (result in words): high salt (150 mM KCl), inhibitor 1 nM to 100 μM
T1 construct: made in house; host or cells: Sf9 (Spodoptera frugiperda) insect cells
T1 sequence (Q05193 1-864): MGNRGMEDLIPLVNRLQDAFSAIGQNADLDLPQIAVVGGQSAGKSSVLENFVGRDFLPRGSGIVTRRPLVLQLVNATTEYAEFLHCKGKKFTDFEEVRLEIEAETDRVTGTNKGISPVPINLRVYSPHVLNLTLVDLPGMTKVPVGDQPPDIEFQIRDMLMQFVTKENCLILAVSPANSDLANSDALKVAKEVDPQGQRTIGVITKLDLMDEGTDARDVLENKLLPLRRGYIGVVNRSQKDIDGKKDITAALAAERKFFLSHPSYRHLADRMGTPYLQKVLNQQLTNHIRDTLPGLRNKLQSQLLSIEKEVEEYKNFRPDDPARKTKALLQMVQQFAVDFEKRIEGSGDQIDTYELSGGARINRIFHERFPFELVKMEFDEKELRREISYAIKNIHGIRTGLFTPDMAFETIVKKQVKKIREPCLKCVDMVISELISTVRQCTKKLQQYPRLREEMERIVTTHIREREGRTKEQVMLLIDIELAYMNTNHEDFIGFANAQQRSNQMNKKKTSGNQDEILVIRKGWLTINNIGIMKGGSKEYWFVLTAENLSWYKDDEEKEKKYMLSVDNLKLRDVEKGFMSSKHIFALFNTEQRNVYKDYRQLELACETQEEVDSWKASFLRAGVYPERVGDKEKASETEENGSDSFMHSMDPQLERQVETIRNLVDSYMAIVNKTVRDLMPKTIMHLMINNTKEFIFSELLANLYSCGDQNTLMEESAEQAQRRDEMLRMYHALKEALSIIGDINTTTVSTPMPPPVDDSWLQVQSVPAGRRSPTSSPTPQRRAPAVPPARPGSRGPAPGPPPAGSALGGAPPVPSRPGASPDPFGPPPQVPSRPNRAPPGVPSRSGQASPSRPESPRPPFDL
Procedure: Dynamin-1 (Dyn1) was expressed in Sf9 (Spodoptera frugiperda, GIBCO-BRL, Gaithersburg, MD) insect cells and purified by affinity chromatography, as previously described. Nucleotide-free protein aliquots were stored in assay buffer containing 20 mM HEPES, 150 mM KCl, 1 mM EDTA, 1 mM EGTA and 1 mM DTT at pH 7.4. The aliquots were flash frozen in liquid nitrogen and stored in -80°C in 5% v/v glycerol. Prior to running assays, frozen aliquots of Dyn1 were thawed and centrifuged at 100,000 g for 15 minutes to remove any aggregates. Dyn1 concentration was determined by measuring its absorbance at 280 nm with a UV/Vis spectrophotometer (Beckman Coulter Inc.) using a molar absorptivity coefficient of 73,800 M^-1 cm^-1.
The Transcreener® GDP FP (BellBrook Labs) assay is an immune-competition assay based on a mouse monoclonal antibody that selectively binds Alexa633-conjugated GDP over GTP. The preformed Alexa633-GDP antibody complex is added at the end of the reaction, and the GDP generated displaces bound Alexa633 fluorescent tracer, resulting in a decrease in its far-red fluorescence polarization (FP). The assay detects GDP production with high sensitivity at low substrate concentrations and has been used to develop an HTS compatible assay for the enzymatic activity of ARFGAP [20]. Stocks of 5 mM GTP, 10x Stop & Detect Buffer B, 400 nM GDP Alexa633 Tracer, and 3100 μg/mL GDP antibody were purchased from BellBrook Labs (Madison, WI). Assays were performed in Corning 384-well plates at room temperature.
All assays were conducted in the endpoint format, which measures total GDP production after 60 minutes of incubation at room temperature. […] The plate was then read for fluorescence polarization in millipolarization units (mP) using an EnVision multi-modal microplate reader (PerkinElmer, Inc.). […]
For the confirmation screen and dose response curves, the data were analyzed by normalizing the sample GDP released to the control GDP released using the following equation: normalizedGTPaseactivity=sampleGDPreleased/controlGDPreleased×100 (4)

Dynamin-1 (Dyn1) [2] = biological target: T1, Dynamin-1 (Dyn1); assay: Lipid nanotube (NT)-stimulated GTPase activity, malachite green assay; format: biochemical; details: 100 nM Dyn1, 300 μM lipid nanotubes, 25 μM GTP, 37°C; read-out: IC50, inhibition of NT-stimulated GTPase activity of Dyn1
Procedure: The lipid nanotube (NT)-stimulated malachite green assays were performed in 96-well plates at 37°C. The final reaction consisted of 100 nM Dyn1, 25 μM GTP, and 300 μM lipid nanotubes. The assay and reagent preparations were performed according to our published protocol. All general chemicals were purchased from Sigma-Aldrich (St. Louis, MO). Compounds tested in the malachite green assay were purchased from Chembridge and ChemDiv (both located in San Diego, CA).
Compound 24 was compared with the two commercially available dynamin inhibitors, Dynasore and Dyngo-4a, in a dose-response assay measuring inhibition of basal GTPase activity under high salt (150 mM KCl) conditions. The concentration of inhibitors ranged from 1 nM to 100 μM. […] Therefore, to more closely parallel previous studies we tested both commercial inhibitors in comparison to compound 24 for their effects on dynamin’s stimulated GTPase activity. Assays were performed in the presence of PI(4,5)P2-containing lipid nanotubes (NT), whose diameter (~ 20 nm) resembles the neck of an invaginated coated pit, using the malachite green assay.

dynamin = details: low salt, 20 nM dynamin; read-out: IC50, stimulated GTPase activity, sonicated PS liposomes; cited from earlier work
[3] = tested on: triple dynamin-1, 2, and 3 knockout cells; parameters: method as in PMID 24046449; details: cited from earlier work

IC50 (Dynamin-1 (Dyn1) [1]; 50 nM Dyn1, 10 μM GTP, 60 min, room temperature, 11-point dose response 1 nM to 100 μM, read-out: IC50, inhibition of basal GTPase activity of Dyn1) | IC50 (Dynamin-1 (Dyn1) [2]) | SMILES | IC50 (dynamin) | inhibition of basal GTPase activity (result in words) (Dynamin-1 (Dyn1) [1]) | inhibition of endocytosis (result in words) [3]
0.58 µM and ~0.6 µM | 6.4 µM and ~6 µM | CN(C)c1ccc(/C=C/C=C2/SC(=S)NC2=O)cc1 [compound 24] | – | – | –
– | 83.5 µM | O=C(N/N=C/c1ccc(O)c(O)c1)c1cc2ccccc2cc1O [Dynasore] | 0.4 µM | do not appear to inhibit basal GTPase activity even at high concentrations; also recorded: neither was able to inhibit basal GTPase activity | continue to inhibit endocytosis

SMILES | IC50 (Dynamin-1 (Dyn1) [1]; 50 nM Dyn1, 10 μM GTP, 60 min, room temperature, 11-point dose response 1 nM to 100 μM, read-out: IC50, inhibition of basal GTPase activity of Dyn1) | IC50 (Dynamin-1 (Dyn1) [2]) | IC50 (dynamin) | inhibition of basal GTPase activity (result in words) (Dynamin-1 (Dyn1) [1]) | inhibition of endocytosis (result in words) [3]
O=C(N/N=C/c1cc(O)c(O)cc1O)c1cc2ccccc2cc1O [Dyngo-4a] | – | 45.4 µM | 12 µM | do not appear to inhibit basal GTPase activity even at high concentrations; also recorded: neither was able to inhibit basal GTPase activity | continue to inhibit endocytosis
